The results in this text go back to patent US20120093951A1 (priority 2009, published 2012).

Assay [1] concerns swine influenza virus A/California/4/2009 and A/Hong Kong/xx/2008. Format: cell-based, MDCK cells (Madin-Darby Canine Kidney Cells).
In assay [2] the test system is H1N1 serum subtype of swine influenza virus (SIV). Format: in vivo, yellow chickens. The following applies: 10 mg/day once per day for 11 days.
Assay [3] relates to H1N1 subtype serum swine influenza virus. Format: in vivo, yellow chickens. Particulars: 10 mg/day injected once per day for 7 days.

Where two headings read alike, the source gives them in different places.

In the case of `CCOC(=O)C1=C[C@@H](OC(CC)CC)[C@H](NC(C)=O)[C@@H](N)C1` [Tamiflu, Oseltamivir phosphate], the “Number of Detectable viruses/Total Number” value in assay [1] (Day 2, Tamiflu 10 μmol/ml) was 1/2; in assay [1] (Day 2, Tamiflu 100 μmol/ml), 0/2; in assay [1] (Day 3, Tamiflu 10 μmol/ml), 2/2; in assay [1] (Day 3, Tamiflu 100 μmol/ml), 2/2.

On to `CC(N)C12CC3CC(CC(C3)C1)C2` (stereo not shown) [Group C, rimantadine], for which the “Death Rate” value in assay [2] (40 infected chickens) is 62.5%^; in assay [3] (30 infected chickens), 63.3%^. Also, the figures for the “Effective Rate” value in assay [2] (40 infected chickens) and in assay [3] (30 infected chickens) were 37.5% and 36.6%, respectively. The “Number of Death” value was 25 in assay [2] (of 40 infected chickens) and 19 in assay [3] (of 30 infected chickens).
